Key:
NCI-H460 cells [1] = assay: MTT in vitro cytotoxicity, NCI-H460; type: cell-based, human; conditions: NCI-H460 human lung cancer cells, MTT, 48 h; read-out: IC50
Procedure: (§1) Human lung cancer cells (NCI-H460, NCI-H1299, and A549), human breast cancer cells (MDA-MB-231, MDA-MB-453, and MCF-7), human liver cancer cells (Huh-7 and HepG2), human colon cancer cells (coca-2, HT-29, and HCT116), human cervical cancer cells (HeLa), human normal lung cells (BEAS-2B), and human normal […] (MCF-10) were from the State Key Laboratory of Pharmaceutical Biotechnology, Nanjing University. NCI-H460 were cultured in 1640 medium containing 10% fetal bovine serum (FBS). MDA-MB-231 were cultured in L15 medium containing 10% FBS without CO2, and other cell lines were cultured in DMEM medium containing 10% FBS CO2 in the incubator.
(§2) MTT assay was used to identify 14 different cell lines (human lung cancer cells NCI-H460, NCI-H1299, and A549; human breast cancer cells MDA-MB-231, MDA-MB-453, and MCF-7; human liver cancer cells Huh-7 and HepG2; human colon cancer cells coca-2, HT-29, and HCT116; and human cervical cancer cells HeLa) and 2 kinds of normal cell lines (human normal lung epithelial cells BEAS-2B, human normal breast epithelial cells MCF10-A) for quantitative analysis ([15]). In addition, 10-HCPT and palbociclib were used as positive control.
(§3) Cells were harvested during the logarithmic growth phase and seeded into 96-well plates at a density of 2.0×10^3 cells/well. After being incubated for 24 h, the cells were treated with different concentrations of various culture programs for 48 h. Afterwards, 20 μl of MTT solution (5 mg/ml) was added to each well, and the cells were incubated in a 5% CO2 atmosphere at 37°C for another 4 h. Then, the supernatant was discarded, and the formazan crystals were dissolved in 150 μl DMSO. Subsequently, the absorbance was measured at 570 nm via a Tecan microplate reader. The concentration that caused 50% inhibition of cell viability (IC50) values was calculated by GraphPad Software. Triplicate experiments were performed in parallel for each concentration, and the results are shown as the mean ± SD. The inhibitory ratio was calculated using the following formula: inhibitory ratio (%) = [1−(mean absorbance of experiment group)/(mean absorbance of control group)] × 100.

NCI-H1299 cells = assay: MTT in vitro cytotoxicity, NCI-H1299; type: cell-based, human; conditions: NCI-H1299 human lung cancer cells, MTT, 48 h; read-out: IC50
Procedure: as §1, §2, §3

A549 cells = assay: MTT in vitro cytotoxicity, A549; type: cell-based, human; conditions: A549 human lung cancer cells, MTT, 48 h; read-out: IC50
Procedure: as §1, §2, §3

BEAS-2B cells = assay: MTT in vitro cytotoxicity, BEAS-2B normal lung epithelial cells; type: cell-based, human; conditions: BEAS-2B human normal lung epithelial cells, MTT, 48 h; read-out: IC50
Procedure: as §1, §2, §3

MDA-MB-231 cells = assay: MTT in vitro cytotoxicity, MDA-MB-231; type: cell-based, human; conditions: MDA-MB-231 human breast cancer cells, MTT, 48 h; read-out: IC50
Procedure: as §1, §2, §3

MDA-MB-453 cells = assay: MTT in vitro cytotoxicity, MDA-MB-453; type: cell-based, human; conditions: MDA-MB-453 human breast cancer cells, MTT, 48 h; read-out: IC50
Procedure: as §1, §2, §3

MCF-7 cells = assay: MTT in vitro cytotoxicity, MCF-7; type: cell-based, human; conditions: MCF7; MCF-7 human breast cancer cells, MTT, 48 h; read-out: IC50
Procedure: as §1, §2, §3

MCF10-A cells = assay: MTT in vitro cytotoxicity, MCF10-A normal breast epithelial cells; type: cell-based, human; conditions: MCF-10A; MCF10-A human normal breast epithelial cells, MTT, 48 h; read-out: IC50
Procedure: as §1, §2, §3

Huh-7 cells = assay: MTT in vitro cytotoxicity, Huh-7; type: cell-based, human; conditions: Huh-7 human liver cancer cells, MTT, 48 h; read-out: IC50
Procedure: as §1, §2, §3

HepG2 cells = assay: MTT in vitro cytotoxicity, HepG2; type: cell-based, human; conditions: HepG2 human liver cancer cells, MTT, 48 h; read-out: IC50
Procedure: as §1, §2, §3

Coca-2 cells = assay: MTT in vitro cytotoxicity, Coca-2; type: cell-based, human; conditions: Coca-2 human colon cancer cells, MTT, 48 h; read-out: IC50
Procedure: as §1, §2, §3

HT-29 cells = assay: MTT in vitro cytotoxicity, HT-29; type: cell-based, human; conditions: HT-29 human colon cancer cells, MTT, 48 h; read-out: IC50
Procedure: as §1, §2, §3

HCT116 cells = assay: MTT in vitro cytotoxicity, HCT116; type: cell-based, human; conditions: HCT-116; HCT116 human colon cancer cells, MTT, 48 h; read-out: IC50
Procedure: as §1, §2, §3

Hela cells = assay: MTT in vitro cytotoxicity, Hela; type: cell-based, human; conditions: Hela human cervical cancer cells, MTT, 48 h; read-out: IC50
Procedure: as §1, §2, §3

NCI-H460 cells [2] = assay: Annexin V/PI apoptosis by flow cytometry, NCI-H460; type: cell-based, human; conditions: same concentration (not given)
Procedure: NCI-H460 cells were harvested in logarithmic growth phase and seeded into six-well plates at a density of 5.0 × 10^3 cells/well. After being incubated for 24 h, the cells were harvested with 0.25% Trypsin after exposed to various culture programs, washed with PBS, and re-suspended in 500 μl binding buffer. The experiment was triply replicated. Then, the cells were stained by adding to 5 μl Annexin V-FITC and 5 μl PI for15 min at 25°C in the dark. Finally, the cells were detected and analyzed using a flow cytometer with FlowJo 7.6.1.

[3] = tested on: Cyclin D, CDK4, CDK6, Rb, and p-Rb; assay: Western blot of Cyclin D-CDK4/6-Rb pathway proteins in NCI-H460; type: cell-based, human; conditions: NCI-H460, 0, 0.5, 1, 2 μM for 24 h
Procedure: (§4) NCI-H460 cells were harvested in logarithmic growth phase and seeded into six-well plates at a density of 5.0 × 10^3 cells/well. After being incubated for 48 h, the cells were harvested with 0.25% Trypsin after exposed to various concentrations of HP-1 (0, 0.5, 1, 2 μM), 10-HCPT (2 μM), and pabocini (2 μM) for 24 h.Then, precooled radio-immunoprecipitation assay (RIPA) lysates [10 mM Tris–HCl, 1 mM EDTA, 1% sodium dodecyl sulfate (SDS), 1 mM dithiothreitol (DTT), 0.1 mM phenylmethylsulfonyl fluoride (PMSF), protease inhibitors, 1% Nonidet P-40, pH 8] were added to them and placed on ice to lyse the cells for 30 min. After centrifugation at 10,000 rpm and 4°C for 10 min, the supernatant was collected to obtain soluble proteins. Lysates were centrifuged at 10,000 rpm for 20 min at 4°C, and the supernatant was collected.
(§5) The absorbance value was measured at 562 nm using a microplate analyzer to calculate the protein content. An equal amount of protein was separated by 10% SDS–polyacrylamide gel electrophoresis (SDS-PAGE) gels and transferred onto PVDF membrane. […] Finally, the membrane was placed on the membrane carrier plate, and the bands were detected with enhanced chemiluminescence reagent to indicate the protein expression.

[4] = tested on: PI3K, AKT, p-PI3K, and p-AKT; assay: Western blot of PI3K/AKT pathway-related proteins in NCI-H460; type: cell-based, human; conditions: NCI-H460, 0, 0.5, 1, 2 μM for 24 h
Procedure: as §4, §5

With CC[C@]1(O)C(=O)OCc2c1cc1n(c2=O)Cc2cc3cc(OC(=O)CCCC(=O)N4CCN(c5ccc(Nc6ncc7c(C)c(C(C)=O)c(=O)n(C8CCCC8)c7n6)nc5)CC4)ccc3nc2-1 [HP-1, (R)-4-ethyl-4-hydroxy-3,14-dioxo-3,4,12,14-tetrahydro-1H-pyrano[3’,4’:6,7] indolizino[1,2-b]quinolin-9-yl5-(4-(6-((6-acetyl-8-cyclopentyl-5-methyl-7-oxo-7,8-dihydropyrido[2,3-d]pyrimidin-2-yl)amino)pyridin-3-yl)piperazin-1-yl)-5-oxopentanoate] the IC50 (NCI-H460 cells [1]) was 0.96 ± 0.01 µM, the IC50 (NCI-H1299 cells) was 2.29 ± 0.02 µM and the IC50 (A549 cells) was 3.41 ± 0.22 µM. It also gave an IC50 (BEAS-2B cells) of 36.4 ± 0.43 µM, an IC50 (MDA-MB-231 cells) of 15.3 ± 2.51 µM and an IC50 (MDA-MB-453 cells) of 5.28 ± 0.81 µM. For the same compound, the IC50 (MCF-7 cells) was 10.3 ± 1.68 µM, the IC50 (MCF10-A cells) was 32.4 ± 1.33 µM and the IC50 (Huh-7 cells) was 9.48 ± 1.59 µM. It also gave an IC50 (HepG2 cells) of 2.57 ± 0.42 µM, an IC50 (Coca-2 cells) of 15.2 ± 0.54 µM and an IC50 (HT-29 cells) of 12.4 ± 1.62 µM. For the same compound, the IC50 (HCT116 cells) was 17.1 ± 0.31 µM, the IC50 (Hela cells) was 5.46 ± 0.08 µM and the “Q1 (annexin V/PI quadrant)” value (NCI-H460 cells [2]; NCI-H460, 12h) was 0.32. For the same compound, the “Q2 (annexin V/PI quadrant)” value (NCI-H460 cells [2]; NCI-H460, 12h) was 9.93, the “Q3 (annexin V/PI quadrant)” value (NCI-H460 cells [2]; NCI-H460, 12h) was 13.4 and the “Q4 (annexin V/PI quadrant)” value (NCI-H460 cells [2]; NCI-H460, 12h) was 76.4. For the same compound, the “Q1 (annexin V/PI quadrant)” value (NCI-H460 cells [2]; NCI-H460, 24h) was 0.80, the “Q2 (annexin V/PI quadrant)” value (NCI-H460 cells [2]; NCI-H460, 24h) was 33.7 and the “Q3 (annexin V/PI quadrant)” value (NCI-H460 cells [2]; NCI-H460, 24h) was 31.4. The “Q4 (annexin V/PI quadrant)” value (NCI-H460 cells [2]; NCI-H460, 24h) was 34.0, the “Q1 (annexin V/PI quadrant)” value (NCI-H460 cells [2]; NCI-H460, 36h) was 0.66 and the “Q2 (annexin V/PI quadrant)” value (NCI-H460 cells [2]; NCI-H460, 36h) was 61.8. The “Q3 (annexin V/PI quadrant)” value (NCI-H460 cells [2]; NCI-H460, 36h) was 33.6, the “Q4 (annexin V/PI quadrant)” value (NCI-H460 cells [2]; NCI-H460, 36h) was 3.91 and the “Protein expressions of Cyclin D, CDK4, CDK6, Rb, and p-Rb” value [3] was “significantly decreased”. The “expression of PI3K, AKT, p-PI3K, and p-AKT” value [4] was “decreased” and the melting point was 44.5 to 46.4 °C.
